# In US10757937B2, “Sulfonamides that activate ABA receptors” (The Regents of the University of California, priority 2014, dated 2020):
# Like-named read-outs stand apart in the source and are kept apart here.
# Columns and labels:
# PYL3 = biological target: T1, PYL3 (Arabidopsis thaliana, UniProt Q9SSM7); experiment: receptor-mediated PP2C (HAB1) inhibition in vitro assay; assay type: biochemical; conditions: for remaining activity at 50 µM: 50 uM of the test compound
# T1 construct: 6X-His; made in house; host or cells: E. coli BL21[DE3]pLysS
# T1 sequence (Q9SSM7 1-209): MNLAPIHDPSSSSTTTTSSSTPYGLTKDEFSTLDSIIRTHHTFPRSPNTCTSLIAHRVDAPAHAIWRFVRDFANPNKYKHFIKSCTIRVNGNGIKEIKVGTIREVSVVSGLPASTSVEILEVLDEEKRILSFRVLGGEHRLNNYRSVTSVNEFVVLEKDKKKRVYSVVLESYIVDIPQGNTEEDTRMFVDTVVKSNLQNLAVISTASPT
# T1 sequence (Q9CAJ0 23-511 partner): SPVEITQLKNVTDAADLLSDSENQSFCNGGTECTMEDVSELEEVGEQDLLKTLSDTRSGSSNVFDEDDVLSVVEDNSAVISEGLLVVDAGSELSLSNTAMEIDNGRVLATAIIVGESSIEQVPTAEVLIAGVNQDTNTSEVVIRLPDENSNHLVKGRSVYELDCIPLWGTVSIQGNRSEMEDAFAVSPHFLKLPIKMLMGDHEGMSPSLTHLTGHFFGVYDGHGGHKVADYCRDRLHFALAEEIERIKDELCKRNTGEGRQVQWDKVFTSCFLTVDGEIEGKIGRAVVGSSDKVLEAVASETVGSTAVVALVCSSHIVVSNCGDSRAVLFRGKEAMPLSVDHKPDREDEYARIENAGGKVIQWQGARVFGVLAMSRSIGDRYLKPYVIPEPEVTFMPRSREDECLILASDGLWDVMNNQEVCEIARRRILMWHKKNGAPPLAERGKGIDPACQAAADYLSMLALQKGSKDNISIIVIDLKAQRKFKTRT
# Procedure, shortened: (§1)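 Fluorogenic readout: 4-methylumbelliferyl-phosphate hydrolysis by 50 nM GST-HAB1 plus 2:1 His-receptor; Tris-OAc pH 7.9, NaCl, 1 mM MnCl2, β-ME. Compounds at 25 μM or 50 uM single dose; IC50 from dose curves for selected compounds.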
# PYR1 = biological target: T2, PYR1 (Arabidopsis thaliana, UniProt O49686); experiment: as above; assay type: biochemical; conditions: for remaining activity at 50 µM: 50 uM of the test compound
# T2 construct: 6X-His; made in house; host or cells: E. coli BL21[DE3]pLysS
# T2 sequence (O49686 1-191): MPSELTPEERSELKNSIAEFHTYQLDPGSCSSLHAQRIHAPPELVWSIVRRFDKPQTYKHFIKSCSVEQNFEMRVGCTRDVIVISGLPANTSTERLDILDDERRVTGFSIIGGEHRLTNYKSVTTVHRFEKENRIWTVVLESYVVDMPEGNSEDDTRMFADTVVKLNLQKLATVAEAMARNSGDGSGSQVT
# T2 sequence (Q9CAJ0 23-511 partner): T1 sequence (Q9CAJ0 23-511 partner)
# Procedure, shortened: as §1
# [1] = Table XII-B, calculated from dose curves, read-out: PP2C Activity (IC50 in uM) PYL3
# [2] = Table XII-B, calculated from dose curves, read-out: PP2C Activity (IC50 in uM) PYR1
# [3] = Table VII, read-out: PP2C Dose Curves PYL3 (IC50)
# [4] = Table VII, read-out: PP2C Dose Curves PYR1 (IC50)
Compound,remaining activity at 50 µM (PYL3),IC50 (PYL3; [1]),remaining activity at 50 µM (PYR1),IC50 (PYR1; [2]),IC50 (PYL3; [3]),IC50 (PYR1; [4]),PP2C Activity PYL3 (PYL3; ABA (10 μM)),PP2C Activity PYR1 (PYR1; ABA (10 μM))
O=C(NS(=O)(=O)Cc1ccc(F)cc1)C1(c2ccccc2)CCCCC1 [Compound 64],97.4%,> 50 µM,98.4%,> 50 µM,,,,
"N#Cc1ccc(CS(=O)(=O)NC(=O)C(c2ccccc2)c2ccccc2)cc1 [Compound 71, N-[(4-Cyanophenyl)methanesulfonyl]-2,2-diphenylacetamide]",102%,> 50 µM,97.9%,> 50 µM,,,,
N#Cc1ccc(CS(=O)(=O)NC(=O)C2(c3cccc(C#N)c3)CC2)cc1 [Compound 50],,,,,20.8 µM,,,
"N#Cc1ccc(CS(=O)(=O)NC(=O)C(c2ccc(F)cc2)c2ccc(F)cc2)cc1 [Compound 72, N-[(4-Cyanophenyl)methanesulfonyl]-2,2-bis(4-fluorophenyl)acetamide]",100%,> 50 µM,93.9%,> 50 µM,,,,
CC(C)(C(=O)NS(=O)(=O)Cc1ccc(C#N)cc1)c1cccc(C#N)c1 [Compound 18],,,,,> 50 µM,,,
CCC(CC)(C(=O)NS(=O)(=O)Cc1ccc([N+](=O)[O-])cc1)c1ccccc1 [Compound 19],,,,,> 50 µM,> 50 µM,,
N#Cc1ccc(CS(=O)(=O)NC(=O)C2(c3ccc(Br)cc3)CC2)cc1 [Compound 30],,,,,> 50 µM,,,
"N#Cc1ccc(CS(=O)(=O)NC(=O)C(C2CCCCC2)C2CCCCC2)cc1 [Compound 73, N-[(4-Cyanophenyl)methanesulfonyl]-2,2-cyclohexylacetamide]",92.7%,> 50 µM,91.6%,> 50 µM,,,,
"CC(C)COC(=O)NS(=O)(=O)Cc1ccc(C#N)cc1 [Compound 65, 2-Methylpropyl N-[(4-cyanophenyl)methanesulfonyl]carbamate]",92.9%,> 50 µM,96.2%,> 50 µM,,,,
"CC1(C)CCC(C(=O)NS(=O)(=O)Cc2ccc(C#N)cc2)(c2ccc(F)cc2)CC1 [Compound 68, N-[(4-Cyanophenyl)methanesulfonyl]-1-(4-fluorophenyl)-4,4-dimethylcyclohexane-1-carboxamide]",98.3%,> 50 µM,94.4%,> 50 µM,,,,
N#Cc1ccc(CS(=O)(=O)NC(=O)C2(c3ccc(F)cc3)CCCC2)cc1 [Compound 24],,,,,,> 50 µM,,
O=C(NS(=O)(=O)Cc1ccc([N+](=O)[O-])cc1)C1(c2ccccc2)CCCCC1 [Compound 63],127%,> 50 µM,101%,> 50 µM,,,,
"N#Cc1ccc(CS(=O)(=O)NC(=O)C2(c3ccccc3)CCCCC2)cc1 [Compound 69, N-[(4-Cyanophenyl)methanesulfonyl]-1-phenylcyclohexane-1-carboxamide]",103%,> 50 µM,96%,> 50 µM,,,,
"CC1=CC(=O)CC(C)(C)[C@@]1(O)/C=C/C(C)=C\C(=O)O [ABA, Abscisic acid, reference compound]",,,,,,,5.4,6.0
"N#Cc1ccc(CS(=O)(=O)NC(=O)C2(c3ccsc3)CCCCC2)cc1 [Compound 78, N-[(4-Cyanophenyl)methanesulfonyl]-1-(thiophen-3-yl)cyclohexane-1-carboxamide]",103%,> 50 µM,90.9%,> 50 µM,,,,
"N#Cc1ccc(CS(=O)(=O)NC(=O)C2(c3ccsc3)CCCCC2)cc1Br [Compound 106, N-[(4-Cyano-3-bromophenyl)methanesulfonyl]-1-(thiophen-3-yl)cyclohexane-1-carboxamide]",96.9%,> 50 µM,98.9%,> 50 µM,,,,
"CC1CCC(C(=O)NS(=O)(=O)Cc2ccc(C#N)cc2)(c2ccc(F)cc2)CC1 (centres unmarked) [Compound 67, N-[(4-Cyanophenyl)methanesulfonyl]-1-(4-fluorophenyl)-4-methylcyclohexane-1-carboxamide]",101%,> 50 µM,99.6%,> 50 µM,,,,
"N#Cc1ccc(CS(=O)(=O)NC(=O)C2(c3cccs3)CCCCC2)cc1 [Compound 75, N-[(4-Cyanophenyl)methanesulfonyl]-1-(thiophen-2-yl)cyclohexane-1-carboxamide]",95.4%,> 50 µM,96.1%,> 50 µM,,,,
